# Test results reported in ChEMBL document CHEMBL3822420, “New peptide deformylase inhibitors design, synthesis and pharmacokinetic assessment” (Bioorg Med Chem Lett, 2016).
# Columns and labels:
# Type in all cases: functional
# [1] = system: Staphylococcus aureus; experiment: Antibacterial activity against methicillin-resistant Staphylococcus aureus 14-1
# [2] = system: Enterococcus faecalis; experiment: Antibacterial activity against Enterococcus faecalis 14-2
# [3] = system: Staphylococcus aureus; experiment: Antibacterial activity against methicillin-sensitive Staphylococcus aureus 14-2
# [4] = system: Staphylococcus epidermidis; experiment: Antibacterial activity against methicillin-sensitive Staphylococcus epidermidis 14-1
# [5] = system: Escherichia coli; experiment: Antibacterial activity against Escherichia coli 14-1
# [6] = system: Escherichia coli; experiment: Antibacterial activity against Escherichia coli 14-1 expressing extended-spectrum beta-lactamase
# [7] = system: Staphylococcus epidermidis; experiment: Antibacterial activity against methicillin-sensitive Staphylococcus epidermidis 14-2
# [8] = system: Staphylococcus epidermidis; experiment: Antibacterial activity against methicillin-resistant Staphylococcus epidermidis 14-4
# [9] = system: Enterococcus faecalis; experiment: Antibacterial activity against Enterococcus faecalis 14-5
# [10] = system: Staphylococcus aureus; experiment: Antibacterial activity against methicillin-sensitive Staphylococcus aureus 14-3
# [11] = system: Staphylococcus epidermidis; experiment: Antibacterial activity against methicillin-resistant Staphylococcus epidermidis 14-3
# [12] = system: Enterococcus faecalis; experiment: Antibacterial activity against Enterococcus faecalis 14-1
# [13] = system: Staphylococcus aureus; experiment: Antibacterial activity against methicillin-resistant Staphylococcus aureus 14-5
# [14] = system: Staphylococcus aureus; experiment: Antibacterial activity against methicillin-sensitive Staphylococcus aureus 14-4
# [15] = system: Escherichia coli; experiment: Antibacterial activity against Escherichia coli 14-2
# [16] = system: Staphylococcus aureus; experiment: Antibacterial activity against methicillin-resistant Staphylococcus aureus 14-4
# [17] = system: Staphylococcus epidermidis; experiment: Antibacterial activity against methicillin-sensitive Staphylococcus epidermidis 14-3
# [18] = system: Staphylococcus aureus; experiment: Antibacterial activity against methicillin-sensitive Staphylococcus aureus 14-1
# [19] = system: Enterococcus faecalis; experiment: Antibacterial activity against Enterococcus faecalis 14-3
# [20] = system: Staphylococcus aureus; experiment: Antibacterial activity against methicillin-resistant Staphylococcus aureus 14-2
# [21] = system: Escherichia coli; experiment: Antibacterial activity against Escherichia coli 14-2 expressing extended-spectrum beta-lactamase
# [22] = system: Staphylococcus epidermidis; experiment: Antibacterial activity against methicillin-resistant Staphylococcus epidermidis 14-1
# [23] = system: Staphylococcus epidermidis; experiment: Antibacterial activity against methicillin-resistant Staphylococcus epidermidis 14-2
SMILES,MIC [1] [µg/mL],MIC [2] [µg/mL],MIC [3] [µg/mL],MIC [4] [µg/mL],MIC [5] [µg/mL],MIC [6] [µg/mL],MIC [7] [µg/mL],MIC [8] [µg/mL],MIC [9] [µg/mL],MIC [10] [µg/mL],MIC [11] [µg/mL],MIC [12] [µg/mL],MIC [13] [µg/mL],MIC [14] [µg/mL],MIC [15] [µg/mL],MIC [16] [µg/mL],MIC [17] [µg/mL],MIC [18] [µg/mL],MIC [19] [µg/mL],MIC [20] [µg/mL],further results
CO[C@H]1/C=C/O[C@@]2(C)Oc3c(C)c(O)c4c(O)c(c(/C=N/N5CCN(C)CC5)c(O)c4c3C2=O)NC(=O)/C(C)=C\C=C\[C@H](C)[C@H](O)[C@@H](C)[C@@H](O)[C@@H](C)[C@H](OC(C)=O)[C@@H]1C [RIFAMPIN],> 128,2,0.008,< 0.008,2,2,< 0.008,< 0.008,4,0.008,0.008,1,> 128,< 0.008,2,> 128,0.008,< 0.008,2,> 128,MIC [21]: 2 µg/mL
CCCC[C@H](CN(O)C=O)C(=O)N1CC2(CC2)C[C@H]1C(=O)Nc1cc[nH]n1,16,64,16,4,> 128,16,16,8,> 128,16,4,64,8,16,> 128,16,4,16,64,32,MIC [22]: 8 µg/mL; MIC [23]: 8 µg/mL; MIC [21]: 128 µg/mL
Cc1nc(NNC(=O)[C@H](CC2CCCC2)CN(O)C=O)c(F)c(N2CCN3CCOC[C@@H]3C2)n1 [LANOPEPDEN],2,16,1,0.125,64,1,0.25,0.25,> 64,1,0.015,8,0.25,1,64,2,0.06,1,16,1,MIC [22]: 0.125 µg/mL; MIC [23]: 0.06 µg/mL; MIC [21]: > 64 µg/mL
CCCC[C@H](CN(O)C=O)C(=O)N1CC2(CC2)C[C@H]1C(=O)Nc1nccc(-c2cccnc2)n1,2,0.5,0.5,0.125,> 64,2,0.5,0.5,0.5,0.5,0.125,0.5,0.25,0.25,> 64,2,0.25,0.25,1,0.5,MIC [22]: 0.25 µg/mL; MIC [23]: 0.25 µg/mL; MIC [21]: > 64 µg/mL
CCCC[C@H](CN(O)C=O)C(=O)N1CC2(CC2)C[C@H]1C(=O)Nc1ncccc1F,0.5,2,0.5,0.125,> 64,2,0.25,0.5,2,0.5,0.125,2,0.25,0.5,64,0.5,0.25,0.5,2,0.5,MIC [22]: 0.25 µg/mL; MIC [23]: 0.25 µg/mL; MIC [21]: 64 µg/mL
CCCC[C@H](CN(O)C=O)C(=O)N1CC2(CC2)C[C@H]1c1nnc(-c2ccccn2)o1,4,8,2,1,128,0.5,1,4,8,2,0.5,4,2,2,64,4,0.5,4,8,4,MIC [22]: 1 µg/mL; MIC [23]: 0.5 µg/mL; MIC [21]: 64 µg/mL
